Test results reported in patent publication US20260092070A1, “INHIBITORS OF CANINE JANUS KINASE AND USES THEREOF” (ANIMOL DISCOVERY, INC., priority 2023, published 2026).

Tests used:
[1] = target: Human JAK-2 (Homo sapiens, UniProt O60674); test: JAK enzymatic assay (Eurofins KinaseProfiler/IC50Profiler, radiometric), JAK-2; assay type: biochemical; conditions: human JAK-2 enzyme, 9 concentrations; read-out: JAK2 affinity (IC50) category
Procedure: (§1) All enzyme assays were conducted according to Eurofins Discovery's KinaseProfiler™ and IC50Profiler™ services.
(SEQ ID NO: 2) peptide substrate, 10 mM magnesium acetate and [gamma-33P]-ATP (specific activity and concentration as required). The reaction was initiated by the addition of the Mg/ATP mix. After incubation for 40 minutes at room temperature, the reaction was stopped by the addition of phosphoric acid to a concentration of 0.5%. An aliquot of the reaction was then spotted onto a filter and washed four times for 4 minutes in 0.425% phosphoric acid and once with methanol prior to drying and scintillation counting.
(§2) Data was then imported into an internal application where each data point was expressed as % inhibition based on uninhibited and no enzyme controls.

[2] = target: T1, Human TYK-2 (Homo sapiens, UniProt P29597); test: JAK enzymatic assay (Eurofins KinaseProfiler/IC50Profiler, radiometric), TYK-2; assay type: biochemical; conditions: human TYK-2 enzyme, 9 concentrations; read-out: TYK2 affinity (IC50) category
T1 construct: purchased Eurofins Discovery (KinaseProfiler / IC50Profiler service)
T1 sequence (P29597 whole entry): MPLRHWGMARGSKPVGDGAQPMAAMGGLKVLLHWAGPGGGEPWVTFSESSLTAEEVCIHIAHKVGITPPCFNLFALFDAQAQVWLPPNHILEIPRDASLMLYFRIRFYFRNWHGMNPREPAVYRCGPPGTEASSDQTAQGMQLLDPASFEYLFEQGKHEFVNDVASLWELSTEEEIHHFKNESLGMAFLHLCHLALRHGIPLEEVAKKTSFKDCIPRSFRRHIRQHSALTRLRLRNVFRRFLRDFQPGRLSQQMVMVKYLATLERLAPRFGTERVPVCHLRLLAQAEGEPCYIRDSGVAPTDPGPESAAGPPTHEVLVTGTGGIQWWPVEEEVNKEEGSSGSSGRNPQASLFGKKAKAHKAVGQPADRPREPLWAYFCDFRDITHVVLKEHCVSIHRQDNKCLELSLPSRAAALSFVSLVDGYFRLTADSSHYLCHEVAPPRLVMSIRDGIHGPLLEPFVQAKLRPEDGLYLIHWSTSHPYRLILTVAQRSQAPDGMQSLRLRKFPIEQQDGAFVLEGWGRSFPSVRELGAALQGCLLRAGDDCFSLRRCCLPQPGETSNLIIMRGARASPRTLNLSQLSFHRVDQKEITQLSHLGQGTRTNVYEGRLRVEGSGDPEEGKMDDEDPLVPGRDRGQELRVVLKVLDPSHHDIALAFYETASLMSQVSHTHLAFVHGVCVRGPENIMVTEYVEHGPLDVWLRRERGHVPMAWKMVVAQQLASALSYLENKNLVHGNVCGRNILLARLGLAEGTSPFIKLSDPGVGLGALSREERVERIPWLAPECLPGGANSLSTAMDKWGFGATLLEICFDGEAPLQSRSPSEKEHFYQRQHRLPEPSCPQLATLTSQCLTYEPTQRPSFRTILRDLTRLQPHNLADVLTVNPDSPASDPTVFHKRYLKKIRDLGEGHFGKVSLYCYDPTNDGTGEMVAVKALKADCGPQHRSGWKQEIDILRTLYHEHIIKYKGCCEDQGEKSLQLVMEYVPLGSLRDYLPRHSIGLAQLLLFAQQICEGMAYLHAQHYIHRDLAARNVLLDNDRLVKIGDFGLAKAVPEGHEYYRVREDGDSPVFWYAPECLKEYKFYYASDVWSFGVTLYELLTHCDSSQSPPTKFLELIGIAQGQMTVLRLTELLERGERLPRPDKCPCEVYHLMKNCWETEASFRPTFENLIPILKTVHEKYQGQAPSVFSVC
Procedure: Human TYK-2 (Uniprot ID: P29597) was incubated with 8 mM MOPS pH 7.0, 0.2 mM EDTA, 250 μM […]

[3] = target: JAK-1 (Homo sapiens, UniProt P23458); test: JAK enzymatic assay (Eurofins KinaseProfiler/IC50Profiler, radiometric), JAK-1; conditions: for JAK1/JAK2 selectivity: selectivity IC50 ratio for JAK1 versus JAK2, human enzymes
Sequence of JAK-1 (P23458 whole entry): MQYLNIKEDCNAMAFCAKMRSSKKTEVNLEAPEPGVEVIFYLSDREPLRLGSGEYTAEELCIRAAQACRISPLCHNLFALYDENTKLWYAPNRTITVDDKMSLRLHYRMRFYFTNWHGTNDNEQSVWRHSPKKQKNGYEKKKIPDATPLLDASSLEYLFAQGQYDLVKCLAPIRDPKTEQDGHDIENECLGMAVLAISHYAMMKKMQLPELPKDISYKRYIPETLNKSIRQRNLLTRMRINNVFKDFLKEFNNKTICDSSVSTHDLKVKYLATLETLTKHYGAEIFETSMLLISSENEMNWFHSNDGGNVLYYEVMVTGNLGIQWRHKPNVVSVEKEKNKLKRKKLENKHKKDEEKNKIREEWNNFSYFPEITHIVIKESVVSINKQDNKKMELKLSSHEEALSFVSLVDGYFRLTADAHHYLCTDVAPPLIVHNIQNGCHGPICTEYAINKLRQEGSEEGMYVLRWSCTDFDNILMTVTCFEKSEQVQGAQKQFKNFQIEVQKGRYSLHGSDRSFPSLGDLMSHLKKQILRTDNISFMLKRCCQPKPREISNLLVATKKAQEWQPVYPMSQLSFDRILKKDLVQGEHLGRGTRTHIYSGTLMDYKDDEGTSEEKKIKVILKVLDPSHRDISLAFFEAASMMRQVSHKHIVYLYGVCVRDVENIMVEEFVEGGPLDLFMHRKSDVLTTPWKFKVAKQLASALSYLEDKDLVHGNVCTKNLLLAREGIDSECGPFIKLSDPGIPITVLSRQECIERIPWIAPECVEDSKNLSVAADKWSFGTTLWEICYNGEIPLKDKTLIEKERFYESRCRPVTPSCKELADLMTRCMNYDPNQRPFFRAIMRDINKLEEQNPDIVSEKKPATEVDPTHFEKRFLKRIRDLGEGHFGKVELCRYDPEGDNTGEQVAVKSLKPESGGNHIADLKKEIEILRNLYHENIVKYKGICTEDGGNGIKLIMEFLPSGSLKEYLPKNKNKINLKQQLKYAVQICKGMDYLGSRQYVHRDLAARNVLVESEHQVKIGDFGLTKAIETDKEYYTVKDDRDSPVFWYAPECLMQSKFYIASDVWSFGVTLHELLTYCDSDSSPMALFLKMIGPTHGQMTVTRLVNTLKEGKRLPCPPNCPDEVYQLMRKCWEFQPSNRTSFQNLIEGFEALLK
Procedure: as §1
(SEQ ID NO.: 1) peptide substrate, 10 mM magnesium acetate and [gamma-33P]-ATP (specific activity and concentration as required). The reaction was initiated by the addition of the Mg/ATP mix. After incubation for 40 minutes at room temperature, the reaction was stopped by the addition of phosphoric acid to a concentration of 0.5%. An aliquot of the reaction was then spotted onto a filter and washed four times for 4 minutes in 0.425% phosphoric acid and once with methanol prior to drying and scintillation counting. A known inhibitor, Staurosporine, was used as a positive control for the assay.
Data was then imported into an internal application where each data point was expressed as % inhibition based on uninhibited and no enzyme controls. […] Inhibition values for the JAK enzymes (IC50 values) for each compound were stratified into four groups.

[4] = target: T2, Human JAK-3 (Homo sapiens, UniProt P52333); test: JAK enzymatic assay (Eurofins KinaseProfiler/IC50Profiler, radiometric), JAK-3; assay type: biochemical; conditions: human JAK-3 enzyme, 9 concentrations; read-out: JAK3 affinity (IC50) category
T2 construct: purchased Eurofins Discovery (KinaseProfiler / IC50Profiler service)
T2 sequence (P52333 1-1124): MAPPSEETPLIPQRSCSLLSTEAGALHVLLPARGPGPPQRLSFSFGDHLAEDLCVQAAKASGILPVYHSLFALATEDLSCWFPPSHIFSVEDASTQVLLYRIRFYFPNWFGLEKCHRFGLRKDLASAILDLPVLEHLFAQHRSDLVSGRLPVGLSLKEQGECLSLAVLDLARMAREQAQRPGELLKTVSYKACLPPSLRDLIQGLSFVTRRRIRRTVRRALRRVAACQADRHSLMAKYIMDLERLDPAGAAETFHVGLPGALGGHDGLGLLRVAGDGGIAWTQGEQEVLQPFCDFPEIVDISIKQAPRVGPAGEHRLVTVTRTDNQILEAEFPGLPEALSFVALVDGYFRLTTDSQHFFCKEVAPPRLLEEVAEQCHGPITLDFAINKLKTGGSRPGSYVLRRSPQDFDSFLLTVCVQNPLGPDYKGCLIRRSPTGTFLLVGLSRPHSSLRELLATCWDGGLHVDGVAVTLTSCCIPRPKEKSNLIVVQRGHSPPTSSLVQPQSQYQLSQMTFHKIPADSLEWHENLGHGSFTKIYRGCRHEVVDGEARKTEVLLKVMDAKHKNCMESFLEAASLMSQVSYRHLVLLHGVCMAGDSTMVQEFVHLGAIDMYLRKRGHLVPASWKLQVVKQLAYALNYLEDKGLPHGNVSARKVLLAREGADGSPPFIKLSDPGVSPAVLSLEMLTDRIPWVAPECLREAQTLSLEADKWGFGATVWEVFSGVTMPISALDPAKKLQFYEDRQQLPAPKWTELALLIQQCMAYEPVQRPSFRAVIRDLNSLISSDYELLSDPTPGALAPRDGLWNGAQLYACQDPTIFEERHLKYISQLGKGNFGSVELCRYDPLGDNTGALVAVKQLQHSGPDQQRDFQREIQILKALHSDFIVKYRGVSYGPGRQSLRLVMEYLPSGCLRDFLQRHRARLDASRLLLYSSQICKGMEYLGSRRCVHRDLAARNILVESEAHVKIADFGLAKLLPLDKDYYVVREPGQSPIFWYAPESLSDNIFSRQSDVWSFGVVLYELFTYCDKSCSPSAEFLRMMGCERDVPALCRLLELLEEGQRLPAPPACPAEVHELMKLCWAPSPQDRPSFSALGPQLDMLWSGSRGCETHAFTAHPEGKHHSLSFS
Procedure: as §1
(SEQ ID NO: 3) peptide substrate, 10 mM magnesium acetate and [gamma-33P]-ATP (specific activity and concentration as required). The reaction was initiated by the addition of the Mg/ATP mix. After incubation for 40 minutes at room temperature, the reaction was stopped by the addition of phosphoric acid to a concentration of 0.5%. An aliquot of the reaction was then spotted onto a filter and washed four times for 4 minutes in 0.425% phosphoric acid and once with methanol prior to drying and scintillation counting.
as §2

Sequence of Human JAK-2 (O60674 whole entry): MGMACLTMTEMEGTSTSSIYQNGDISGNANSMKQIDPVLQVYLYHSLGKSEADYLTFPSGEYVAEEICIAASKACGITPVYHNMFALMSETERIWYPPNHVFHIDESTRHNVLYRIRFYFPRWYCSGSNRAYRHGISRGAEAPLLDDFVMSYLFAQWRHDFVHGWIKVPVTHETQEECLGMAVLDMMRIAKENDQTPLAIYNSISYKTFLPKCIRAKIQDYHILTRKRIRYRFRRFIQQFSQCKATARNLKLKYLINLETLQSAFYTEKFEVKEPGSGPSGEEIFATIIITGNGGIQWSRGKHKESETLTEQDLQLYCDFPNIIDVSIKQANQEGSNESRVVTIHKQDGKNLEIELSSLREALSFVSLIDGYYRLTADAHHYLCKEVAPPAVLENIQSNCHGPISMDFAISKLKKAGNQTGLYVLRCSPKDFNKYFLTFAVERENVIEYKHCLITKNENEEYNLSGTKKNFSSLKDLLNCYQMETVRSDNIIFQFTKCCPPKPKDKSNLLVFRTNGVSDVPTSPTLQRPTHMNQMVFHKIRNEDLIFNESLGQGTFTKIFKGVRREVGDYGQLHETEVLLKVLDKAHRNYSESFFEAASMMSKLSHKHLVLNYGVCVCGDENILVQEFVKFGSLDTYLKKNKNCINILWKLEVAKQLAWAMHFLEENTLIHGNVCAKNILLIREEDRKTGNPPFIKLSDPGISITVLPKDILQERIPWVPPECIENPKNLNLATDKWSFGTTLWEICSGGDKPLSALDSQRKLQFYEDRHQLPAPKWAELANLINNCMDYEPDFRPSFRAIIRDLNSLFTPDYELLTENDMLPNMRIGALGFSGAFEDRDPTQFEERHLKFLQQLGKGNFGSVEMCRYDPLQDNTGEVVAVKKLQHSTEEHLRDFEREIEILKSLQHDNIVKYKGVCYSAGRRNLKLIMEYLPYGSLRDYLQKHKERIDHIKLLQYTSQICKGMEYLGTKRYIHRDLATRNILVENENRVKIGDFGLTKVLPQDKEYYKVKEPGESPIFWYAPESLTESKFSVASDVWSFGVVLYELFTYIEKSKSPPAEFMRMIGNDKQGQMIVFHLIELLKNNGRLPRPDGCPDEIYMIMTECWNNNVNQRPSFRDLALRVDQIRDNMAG

| Structure (SMILES) | IC50 [1] | IC50 [2] | IC50 [3] | IC50 [4] | JAK1/JAK2 selectivity [3] |
| --- | --- | --- | --- | --- | --- |
| COc1cc(NC(=O)CN2CCN(c3ncnc4[nH]ccc34)CC2)ccc1S(=O)(=O)N(C)C [Compound 1, 2-(4-(7H-pyrrolo[2,3-d]pyrimidin-4-yl)piperazin-1-yl)-N-(4-(N, N-dimethylsulfamoyl)-3-methoxyphenyl) acetamide] | > 1000 nM | > 1000 nM | 500 to 1000 nM | > 1000 nM |  |
| CN(C)S(=O)(=O)c1ccc(NC(=O)CN2CCN(c3ncnc4[nH]ccc34)CC2)cc1Cl [Compound 6, 2-(4-(7H-pyrrolo[2,3-d]pyrimidin-4-yl)piperazin-1-yl)-N-(3-chloro-4-(N,N-dimethylsulfamoyl)phenyl)acetamide] | > 1000 nM | > 1000 nM |  | > 1000 nM |  |
| CCN(CC)S(=O)(=O)c1ccc(NC(=O)CN2CCN(c3ncnc4[nH]ccc34)CC2)cc1 [Compound 15, 2-(4-(7H-pyrrolo[2,3-d]pyrimidin-4-yl)piperazin-1-yl)-N-(4-(N,N-diethylsulfamoyl)phenyl)acetamide] | > 1000 nM |  | 250 to 500 nM |  | 9 |
| O=C(Nc1ccccc1)C1CCN(C(=O)CN2CCN(c3ncnc4[nH]ccc34)CC2)CC1 [Compound 16, 1-(2-(4-(7H-pyrrolo[2,3-d]pyrimidin-4-yl)piperazin-1-yl)acetyl)-N-phenylpiperidine-4-carboxamide] | > 1000 nM |  | 250 to 500 nM |  | 19 |
| CC(C)NS(=O)(=O)c1ccc(NC(=O)[C@H](C)N2CCN(c3ncnc4[nH]ccc34)CC2)cc1 [Compound 19, (S)-2-(4-(7H-pyrrolo[2,3-d]pyrimidin-4-yl)piperazin-1-yl)-N-(4-(N-isopropylsulfamoyl)phenyl)propenamide] | > 1000 nM |  | < 250 nM | > 1000 nM | 8 |
| CC1CCCN(C(=O)C2CCN(C(=O)CN3CCN(c4nc[nH]c5nccc4-5)CC3)CC2)C1 (stereo not drawn) [Compound 23, 1-[4-(3-methylpiperidine-1-carbonyl)piperidin-1-yl]-2-(4-[1H-pyrrolo[2,3-d]pyrimidin-4-yl]piperazin-1-yl)ethan-1-one] | > 1000 nM |  | > 1000 nM |  |  |
| CC(C)N(C)C(=O)C1CCN(C(=O)CN2CCN(c3nc[nH]c4nccc3-4)CC2)CC1 [Compound 24, N-methyl-N-(propan-2-yl)-1-[2-(4-{1H-pyrrolo[2,3-d]pyrimidin-4-yl}piperazin-1-yl)acetyl]piperidine-4-carboxamide] | > 1000 nM |  | > 1000 nM |  |  |
| O=C(CN1CCN(c2nc[nH]c3nccc2-3)CC1)Nc1ccc(S(=O)(=O)Nc2ncccn2)cc1 [Compound 25, N-{4-[(pyrimidin-2-yl)sulfamoyl]phenyl}-2-(4-{1H-pyrrolo[2,3-d]pyrimidin-4-yl}piperazin-1-yl)acetamide] | < 250 nM |  | < 250 nM |  | 1 |
| O=C(CN1CCN(c2nc[nH]c3nccc2-3)CC1)N1CCC(Cc2ccccc2)CC1 [Compound 26, 1-(4-benzylpiperidin-1-yl)-2-(4-{1H-pyrrolo[2,3-d]pyrimidin-4-yl}piperazin-1-yl)ethan-1-one] | > 1000 nM |  | 250 to 500 nM |  | >22 |
| NS(=O)(=O)c1cccc(NC(=O)CN2CCN(c3nc[nH]c4nccc3-4)CC2)c1 [Compound 27, 2-(4-{1H-pyrrolo[2,3-d]pyrimidin-4-yl}piperazin-1-yl)-N-(3-sulfamoylphenyl)acetamide] | > 1000 nM |  | < 250 nM |  | 14 |
| O=C(CN1CCN(c2nc[nH]c3nccc2-3)CC1)N1CCN(C(=O)Nc2ccccc2)CC1 [Compound 28, N-phenyl-4-[2-(4-{1H-pyrrolo[2,3-d]pyrimidin-4-yl}piperazin-1-yl)acetyl]piperazine-1-carboxamide] | > 1000 nM |  | 250 to 500 nM |  | 19 |
| CN(C)S(=O)(=O)c1cccc(NC(=O)CN2CCN(c3nc[nH]c4nccc3-4)CC2)c1 [Compound 29, N-[3-(dimethylsulfamoyl)phenyl]-2-(4-{1H-pyrrolo[2,3-d]pyrimidin-4-yl}piperazin-1-yl)acetamide] | > 1000 nM |  | 500 to 1000 nM |  | 11 |
| O=C(CN1CCN(c2nc[nH]c3nccc2-3)CC1)Nc1cccc(S(=O)(=O)N2CCOCC2)c1 [Compound 30, N-[3-(morpholine-4-sulfonyl)phenyl]-2-(4-{1H-pyrrolo[2,3-d]pyrimidin-4-yl}piperazin-1-yl)acetamide] | > 1000 nM |  | > 1000 nM |  | 6 |
| O=C(CN1CCN(c2nc[nH]c3nccc2-3)CC1)Nc1ccc(S(=O)(=O)N2CCCCC2)cc1 [Compound 31, N-[4-(piperidine-1-sulfonyl)phenyl]-2-(4-{1H-pyrrolo[2,3-d]pyrimidin-4-yl}piperazin-1-yl)acetamide] | > 1000 nM |  | < 250 nM |  | 4 |
| O=C(CN1CCN(c2nc[nH]c3nccc2-3)CC1)Nc1cccc(S(=O)(=O)N2CCCC2)c1 [Compound 32, N-[3-(pyrrolidine-1-sulfonyl)phenyl]-2-(4-{1H-pyrrolo[2,3-d]pyrimidin-4-yl}piperazin-1-yl)acetamide] | > 1000 nM |  | 250 to 500 nM |  | 23 |
| O=C(CN1CCN(c2nc[nH]c3nccc2-3)CC1)Nc1ccc(/N=N/c2ccccc2)cc1 [Compound 33, N-[4-(2-phenyldiazen-1-yl)phenyl]-2-(4-{1H-pyrrolo[2,3-d]pyrimidin-4-yl}piperazin-1-yl)acetamide] | > 1000 nM |  | < 250 nM |  | >100 |
| CN(C)S(=O)(=O)c1cc(NC(=O)CN2CCN(c3nc[nH]c4nccc3-4)CC2)ccc1Cl [Compound 34, N-[4-chloro-3-(dimethylsulfamoyl)phenyl]-2-(4-{1H-pyrrolo[2,3-d]pyrimidin-4-yl}piperazin-1-yl)acetamide] | > 1000 nM |  | 250 to 500 nM |  | 23 |
| Cc1ccc(NC(=O)CN2CCN(c3nc[nH]c4nccc3-4)CC2)cc1S(=O)(=O)N(C)C [Compound 35, N-[3-(dimethylsulfamoyl)-4-methylphenyl]-2-(4-{1H-pyrrolo[2,3-d]pyrimidin-4-yl}piperazin-1-yl)acetamide] | > 1000 nM |  | 500 to 1000 nM |  | 11 |
| CC(C(=O)Nc1cccc(S(=O)(=O)N(C)C)c1)N1CCN(c2nc[nH]c3nccc2-3)CC1 (stereo not drawn) [Compound 36] | > 1000 nM |  | > 1000 nM |  | 9 |
| CC(C)N(C)S(=O)(=O)c1ccc(NC(=O)CN2CCN(c3nc[nH]c4nccc3-4)CC2)cc1 [Compound 37, N-{4-[methyl(propan-2-yl)sulfamoyl]phenyl}-2-(4-{1H-pyrrolo[2,3-d]pyrimidin-4-yl}piperazin-1-yl)acetamide] | > 1000 nM |  | 250 to 500 nM |  | 15 |
| NS(=O)(=O)c1cccc(NC(=O)CCN2CCN(c3nc[nH]c4nccc3-4)CC2)c1 [Compound 38] | > 1000 nM |  | 500 to 1000 nM |  | 6 |
| O=C(CCN1CCN(c2nc[nH]c3nccc2-3)CC1)Nc1cccc(S(=O)(=O)N2CCCC2)c1 [Compound 39] | > 1000 nM |  | 500 to 1000 nM |  | 1 |
| CN(C)S(=O)(=O)c1ccc(NC(=O)CCN2CCN(c3nc[nH]c4nccc3-4)CC2)cc1 [Compound 40] | > 1000 nM |  | 250 to 500 nM |  | 11 |
| CN(C)S(=O)(=O)c1ccccc1CNC(=O)CN1CCN(c2nc[nH]c3nccc2-3)CC1 [Compound 41, N-{[2-(dimethylsulfamoyl)phenyl]methyl}-2-(4-{1H-pyrrolo[2,3-d]pyrimidin-4-yl}piperazin-1-yl)acetamide] | > 1000 nM |  | 500 to 1000 nM |  | 10 |
